Assay results as given in patent publication US8450342B2, “Perharidines as CDK inhibitors” (Centre Nationale de la Recherche Scientifique, priority 2008, dated 2013).
Several values for one entry are separate records, joined by “and”; a condition that tells them apart may be missing. Equal entries are not always repeated. Where two headings read alike, the source gives them in different places. Each block holds one compound with its values, some of them ahead of it.

How the values were obtained:
[1] = target: CK1δ/ε; test: CK1 kinase assay; assay type: biochemical, porcine
Experimental: (§1) Blank values were subtracted and activities expressed in % of the maximal activity, i.e. in the absence of inhibitors. Controls were performed with appropriate dilutions of dimethylsulfoxide.

[2] = target: T1, CDK5/p25 (Homo sapiens, UniProt Q00535); test: CDK5/p25 kinase assay; assay type: biochemical
T1 construct: made in house
Experimental: (§2) Controls were performed with appropriate dilutions of dimethylsulfoxide.
(§3) ATP (3,000 Ci/mmol; 10 mCi/ml) in a final volume of 30 μl. After 30 min. incubation at 30° C., 25 μl aliquots of supernatant were spotted onto 2.5×3 cm pieces of Whatman P81 phosphocellulose paper, and, 20 sec. later, the filters were washed five times (for at least 5 min. each time) in a solution of 10 ml phosphoric acid/liter of water. The wet filters were counted in the presence of 1 ml ACS (Amersham) scintillation fluid.

[3] = test system: HEK 293 human embryonic kidney cell line; test: Cell survival (MTS assay), HEK293; assay type: cell-based; conditions: HEK293, Table 4, MTS assay
Experimental: (§4) SH-SY5Y human neuroblastoma cells were grown in DMEM medium (Invitrogen, Cergy Pontoise, France). […] Human foreskin primary fibroblasts (kindly provided by Dr. Gilles Ponzio) were grown in DMEM supplemented with 2 mM L-glutamine and 20 mM HEPES. All the media were supplemented with antibiotics (penicillin-streptomycin) from Lonza and 10% volume of FCS from Invitrogen. Cells were cultured at 37° C. with 5% CO2. Drug treatments were performed on exponentially growing cultures at the indicated time and concentrations. Control experiments were carried out using appropriate dilutions of DMSO. MDCK cell-lines were used to test compounds PKD.

[4] = test system: SH-SY5Y human neuroblastoma cells; test: Cell survival (MTS assay), SH-SY5Y; assay type: cell-based
Experimental: as §4

[5] = target: GSK-3α/β; test: GSK-3α/β kinase assay; assay type: biochemical, porcine
Experimental: as §1

[6] = target: CDK1/cyclin B; test: CDK1/cyclin B kinase assay; assay type: biochemical, starfish
Experimental: as §2, §3

[7] = target: DYRK1A (Homo sapiens, UniProt Q13627); test: DYRK1A kinase assay; assay type: biochemical
Experimental: as §1
(§5) The compounds were tested at various concentrations in the kinase assays, as described in the Methods section.

[8] = target: T2, CDK9/cyclin T (Homo sapiens, UniProt P50750); test: CDK9/cyclin T kinase assay; assay type: biochemical
T2 construct: made in house; host or cells: insect cells
Experimental: as §1

[9] = target: T3, CDK2/cyclin A (Homo sapiens, UniProt P24941); test: CDK2/cyclin A kinase assay; assay type: biochemical
T3 construct: made in house; host or cells: insect cells
Experimental: as §1
CDK2/cyclin A (human, recombinant, expressed in insect cells) was assayed as described for CDK1/cyclin B.

[10] = target: CDK2/cyclin E (Homo sapiens, UniProt P24941); test: CDK2/cyclin E kinase assay; assay type: biochemical; conditions: Table 5
Experimental: as §2, §5

[11] = test system: HCT116 (Oncodesign); test: Cell survival, HCT116 (Oncodesign); assay type: cell-based; conditions: Homo sapiens, HCT-116; Table 6
[12] = test system: LS 174T (Oncodesign); test: Cell survival, LS 174T (Oncodesign); assay type: cell-based; conditions: Homo sapiens, LS174T; Table 6
[13] = test system: B2-CLL lymphocytes; test: Survival / cell death of B2-CLL lymphocytes from patients; assay type: cell-based, human; conditions: Homo sapiens, Lymphocyte
Experimental: Cell viability was determined by measuring the reduction of 3-(4,5-dimethylthiazol-2-yl)-5-(3-carboxymethoxyphenyl)-2-(4-sulfophenyl)-2/H-tetrazolium (MTS). Cell death was determined by measuring the level of lactate dehydrogenase activity (LDH) released upon cell lysis.

[14] = target: Erk2 (Homo sapiens, UniProt P28482); test: Erk2 kinase assay; assay type: biochemical; conditions: Table 5
Experimental: as §1, §5

[15] = target: T4, pyridoxal kinase (PDXK) (Sus scrofa, UniProt O46560); test: Competition on agarose beads with porcine brain lysate (silver staining assay), pyridoxal kinase; assay type: binding; conditions: FIG. 1, 500 μM or 100 μM
T4 construct: 1000 μg of porcine brain lysate; from tissue; host or cells: porcine brain lysate
Excerpt: Indeed, the interaction of the compounds of the invention with pyridoxal kinase has been determined by the following method: (silver staining assay)

[16] = target: T5, Erk2 (Sus scrofa, UniProt A0A8W4FG96); test: Competition on agarose beads with porcine brain lysate (silver staining assay), Erk2; assay type: binding; conditions: FIG. 1, 500 μM or 100 μM
T5 construct: 1000 μg of porcine brain lysate; from tissue; host or cells: porcine brain lysate

[17] = test system: RNA polymerase II Ser2 phosphorylation; test: Western blot, RNA polymerase II Ser2 phosphorylation in SH-SY5Y; assay type: cell-based, human; conditions: FIG. 10
Experimental: SH-SY5Y human neuroblastoma cells were grown in DMEM medium (Invitrogen, Cergy Pontoise, France). The HEK 293 human embryonic kidney cell line was grown in MEM medium from Invitrogen. Human foreskin primary fibroblasts (kindly provided by Dr. Gilles Ponzio) were grown in DMEM supplemented with 2 mM L-glutamine and 20 mM HEPES. All the media were supplemented with antibiotics (penicillin-streptomycin) from Lonza and 10% volume of FCS from Invitrogen. Cells were cultured at 37° C. with 5% CO2. Drug treatments were performed on exponentially growing cultures at the indicated time and concentrations. Control experiments were carried out using appropriate dilutions of DMSO. MDCK cell-lines were used to test compounds PKD.
Cells were resuspended and lysed for 30 minutes at 4° C. in Homogenization Buffer [60 mM β-glycerophosphate, 15 mM p-nitrophenyl phosphate, 25 mM MOPS (pH 7.2), 15 mM EGTA, 15 mM MgCl2, 1 mM dithiothreitol, 1 mM sodium vanadate, 1 mM NaF, 1 mM phenylphosphate, 0.1% Nonidet P-40 and protease inhibitor cocktail] and sonicated. After centrifugation (14000 rpm for 15 minutes at 4° C.), the protein concentration was determined in the supernatants by the Bradford protein assay (Bio-Rad).
Whole cell extracts were prepared in buffer containing 100 mM Tris/HCl (pH, 6.8), 1 mM EDTA, 2% SDS and protease inhibitor cocktail. Following heat denaturation for 5 minutes, proteins were separated on 10% or 7% NuPAGE pre-cast Bis-Tris or Tris-Acetate polyacrylamide mini gels (Invitrogen) with MOPS SDS (all but cytochrome C, RNA polymerase II and phospho-Ser2—RNA polymerase II Western blots), MES SDS (cytochrome C), or Tris-Acetate SDS (RNA polymerase II and phospho-Ser2—RNA polymerase II) running buffer depending on protein size. Proteins were transferred to 0.45 μm nitrocellulose filters (Schleicher and Schuell). These were blocked with 5% low fat milk in Tris-Buffered Saline—Tween-20, incubated for 1 h with antibodies (anti-actin: 1:2000) or overnight at 4° C. (cytochome C: 1:500), Rb (1:500), phosphor-Rb (1:500), phospho-Thr320-PP1α (1:1000), RNA polymerase II (1:500), phosphor-Ser2-RNA polymerase II (1:500), Mcl-1 (1:500), caspase-9 (1:1000) and analyzed by Enhanced Chemiluminescence (ECL, Amersham).

[18] = read-out: Inhibition of CK1, IC50
[19] = read-out: Inhibition of CDK5/p25, IC50
[20] = Table 4, MTS assay, read-out: SH-SY5Y cell survival
[21] = read-out: Inhibition of DYRK1A, IC50
[22] = read-out: Inhibition of GSK3beta, IC50
[23] = read-out: Inhibition of the tumor cell-line SHSY-5Y, IC50
[24] = read-out: Inhibition of CDK1/cyclin B, IC50

T1 sequence (Q00535 whole entry): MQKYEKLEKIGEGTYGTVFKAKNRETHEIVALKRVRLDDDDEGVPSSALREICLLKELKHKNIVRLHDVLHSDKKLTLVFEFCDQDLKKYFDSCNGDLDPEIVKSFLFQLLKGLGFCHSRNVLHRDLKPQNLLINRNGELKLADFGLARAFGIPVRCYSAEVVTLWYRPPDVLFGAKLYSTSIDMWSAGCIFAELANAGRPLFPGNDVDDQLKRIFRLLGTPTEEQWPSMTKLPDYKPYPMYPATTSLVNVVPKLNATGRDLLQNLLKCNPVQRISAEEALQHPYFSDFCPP
T1 sequence (Q15078 99-307 partner limits assumed): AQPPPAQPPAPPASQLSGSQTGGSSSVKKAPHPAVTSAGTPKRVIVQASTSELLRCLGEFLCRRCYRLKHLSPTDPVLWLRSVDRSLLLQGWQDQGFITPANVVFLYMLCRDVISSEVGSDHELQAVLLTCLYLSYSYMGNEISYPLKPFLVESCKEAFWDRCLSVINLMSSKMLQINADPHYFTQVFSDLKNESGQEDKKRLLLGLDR
T2 sequence (P50750 whole entry): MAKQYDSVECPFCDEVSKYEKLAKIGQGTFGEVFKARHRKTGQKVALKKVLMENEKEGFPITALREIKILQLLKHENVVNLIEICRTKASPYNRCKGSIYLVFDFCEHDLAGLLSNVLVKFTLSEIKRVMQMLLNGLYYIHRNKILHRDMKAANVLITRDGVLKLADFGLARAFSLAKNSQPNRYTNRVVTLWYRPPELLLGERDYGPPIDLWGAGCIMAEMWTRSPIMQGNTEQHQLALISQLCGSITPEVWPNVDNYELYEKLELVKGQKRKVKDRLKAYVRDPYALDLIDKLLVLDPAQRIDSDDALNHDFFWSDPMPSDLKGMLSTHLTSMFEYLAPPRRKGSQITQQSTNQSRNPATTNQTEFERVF
T2 sequence (O60563 whole entry partner): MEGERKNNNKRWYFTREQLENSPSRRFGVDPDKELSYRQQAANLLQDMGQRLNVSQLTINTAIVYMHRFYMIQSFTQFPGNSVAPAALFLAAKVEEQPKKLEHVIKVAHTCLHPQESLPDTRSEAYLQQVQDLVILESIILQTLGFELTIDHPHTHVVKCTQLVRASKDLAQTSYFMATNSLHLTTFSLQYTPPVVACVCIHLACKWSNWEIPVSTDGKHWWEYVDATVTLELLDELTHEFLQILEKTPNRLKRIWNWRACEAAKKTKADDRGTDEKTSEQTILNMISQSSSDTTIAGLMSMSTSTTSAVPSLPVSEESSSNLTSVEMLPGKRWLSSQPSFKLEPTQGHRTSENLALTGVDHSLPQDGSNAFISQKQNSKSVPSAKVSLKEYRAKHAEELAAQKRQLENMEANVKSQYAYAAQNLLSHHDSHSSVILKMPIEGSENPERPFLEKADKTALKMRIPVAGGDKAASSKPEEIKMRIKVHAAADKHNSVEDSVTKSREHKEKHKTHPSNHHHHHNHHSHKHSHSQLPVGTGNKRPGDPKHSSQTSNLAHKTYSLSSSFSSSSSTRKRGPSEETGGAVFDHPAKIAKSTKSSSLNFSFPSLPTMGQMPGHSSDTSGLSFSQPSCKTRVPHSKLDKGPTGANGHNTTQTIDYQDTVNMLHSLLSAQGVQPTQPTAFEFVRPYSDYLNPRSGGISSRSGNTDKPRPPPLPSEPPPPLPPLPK
T4 sequence (O46560 whole entry): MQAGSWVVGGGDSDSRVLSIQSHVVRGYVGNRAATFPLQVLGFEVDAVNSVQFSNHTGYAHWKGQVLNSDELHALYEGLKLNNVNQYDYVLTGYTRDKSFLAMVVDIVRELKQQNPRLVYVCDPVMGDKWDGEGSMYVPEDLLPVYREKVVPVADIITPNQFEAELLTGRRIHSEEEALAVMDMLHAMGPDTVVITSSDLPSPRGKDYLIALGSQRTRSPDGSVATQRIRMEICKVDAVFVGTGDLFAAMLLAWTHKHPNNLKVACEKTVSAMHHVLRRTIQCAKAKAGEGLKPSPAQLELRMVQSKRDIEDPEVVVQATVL
T5 sequence (A0A8W4FG96 1-358): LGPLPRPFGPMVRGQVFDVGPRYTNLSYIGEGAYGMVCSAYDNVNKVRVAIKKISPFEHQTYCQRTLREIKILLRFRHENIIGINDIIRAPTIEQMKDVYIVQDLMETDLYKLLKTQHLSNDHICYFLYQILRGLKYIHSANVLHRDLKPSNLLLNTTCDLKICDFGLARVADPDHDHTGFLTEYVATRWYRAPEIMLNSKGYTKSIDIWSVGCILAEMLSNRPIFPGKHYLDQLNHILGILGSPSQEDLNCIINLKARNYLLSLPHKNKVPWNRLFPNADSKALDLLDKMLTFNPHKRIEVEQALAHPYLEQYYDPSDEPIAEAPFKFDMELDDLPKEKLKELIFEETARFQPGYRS
Erk2 (Homo sapiens, UniProt P28482), sequence (P28482 whole entry, species assumed): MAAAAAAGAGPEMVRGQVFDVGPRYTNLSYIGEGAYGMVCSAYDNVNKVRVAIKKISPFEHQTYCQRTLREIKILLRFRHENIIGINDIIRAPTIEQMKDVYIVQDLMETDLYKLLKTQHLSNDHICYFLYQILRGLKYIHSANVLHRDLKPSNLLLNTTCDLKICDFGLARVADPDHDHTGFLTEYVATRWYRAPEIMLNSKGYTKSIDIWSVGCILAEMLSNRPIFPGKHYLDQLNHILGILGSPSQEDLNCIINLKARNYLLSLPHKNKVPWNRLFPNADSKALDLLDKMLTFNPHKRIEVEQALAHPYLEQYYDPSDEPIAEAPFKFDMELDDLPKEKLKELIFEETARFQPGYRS

Compound: CC(C)n1cnc2c(NCc3ccccc3)cc([N+](=O)[O-])nc21 [Formula Ie]
IC50 ([1]; Table 4, read-out: CK1): 1 µM | IC50 [3]: 46 µM | IC50 [4, 20]: 74 µM | IC50 ([2]; Table 4, read-out: CDK5): 0.8 µM | IC50 ([5]; Table 4, read-out: GSK3): > 10 µM | IC50 ([6]; Table 4, read-out: CDK1): 1 µM

Compound: CC[C@@H](N)COc1cc(NCc2ccc(-c3ccccc3)cc2)c2ncn(C(C)C)c2n1 [In, (R)-5-(2-aminobutoxy)-3-isopropyl-N-[(4-phenylphenyl)methyl]imidazo[4,5-b]pyridine-7-amine]
IC50 [1, 18]: 0.12 µM | IC50 [7, 21]: 4 µM | IC50 [2, 19]: 0.55 µM | IC50 [5, 22]: 7 µM

Compound: CC[C@H](N)COc1cc(NCc2ccc(-c3ccccc3)cc2)c2ncn(C(C)C)c2n1 [Ip, (S)-5-(2-aminobutoxy)-3-isopropyl-N-[(4-phenylphenyl)methyl]imidazo[4,5-b]pyridin-7-amine]
IC50 [1, 18]: 0.22 µM | IC50 [7, 21]: 3.3 µM | IC50 [5, 22]: 7 µM

Compound: CC(C)n1cnc2c(NCc3ccccc3)cc(N)nc21 [Formula If]
IC50 ([1]; Table 4, read-out: CK1): 8 µM | IC50 [3]: > 100 µM | IC50 [4, 20]: > 100 µM | IC50 ([2]; Table 4, read-out: CDK5): 3.8 µM | IC50 ([5]; Table 4, read-out: GSK3): > 10 µM | IC50 ([6]; Table 4, read-out: CDK1): 4 µM

Compound: CC[C@H](CO)Nc1nc(NCc2ccccc2)c2ncn(C(C)C)c2n1 [(R)-Roscovitine, Roscovitine]
competitor effect for pyridoxal kinase (PDXK) [15]: exhibited a competitor effect | competitor effect for Erk2 [16]: exhibited a competitor effect | total RNA pol II [17]: essentially constant

Compound: CC(C)n1cnc2c(NCc3ccccc3)cc(NC(=O)C(F)(F)F)nc21 [Formula Ig]
IC50 ([1]; Table 4, read-out: CK1): 3 µM | IC50 [3]: > 100 µM | IC50 [4, 20]: > 100 µM | IC50 ([2]; Table 4, read-out: CDK5): 0.63 µM | IC50 ([5]; Table 4, read-out: GSK3): > 10 µM | IC50 ([6]; Table 4, read-out: CDK1): 0.53 µM

Compound: CC(C)n1cnc2c(NCc3ccc(-c4ccccn4)cc3)cc(NC[C@H](O)CO)nc21 [Ik, (2S)-3-[[3-isopropyl-7-[[4-(2-pyridyl)phenyl]methylamino]imidazo[4,5-b]pyridin-5-yl]amino]propane-1,2-diol]
IC50 [1, 18]: 0.38 µM | IC50 ([9]; unit inferred, read-out: Inhibition of CDK2/cyclin A, IC50): 0.12 µM | IC50 [4, 23]: 0.18 µM | IC50 [2, 19]: 0.17 µM | IC50 [5, 22]: > 10 µM | IC50 [6, 24]: 0.2 µM

Second part, led by results:

IC50 [1, 18]: 1.2 µM | IC50 [2, 19]: 0.81 µM
Compound: CC[C@H](CO)Nc1cc(NCc2ccc(-c3ccccc3)cc2)c2ncn(C(C)C)c2n1 [Im, (R) 2-[[3-isopropyl-7-[(4-phenylphenyl)methylamino]imidazo[4,5-b]pyridin-5-yl]amino]butan-1-ol]

IC50 [1, 18]: 2 µM | IC50 [7, 21]: 4.5 µM | IC50 ([2]; unit inferred, read-out: Inhibition of CDK5/p25, IC50): 0.6 µM | IC50 [5, 22]: > 10 µM
Compound: CC[C@@H](CO)Nc1cc(NCc2ccc(-c3ccccc3)cc2)c2ncn(C(C)C)c2n1 [Il, (2S)-2-[[3-isopropyl-7-[(4-phenylphenyl)methylamino]imidazo[4,5-b]pyridin-5-yl]amino]butan-1-ol]

IC50 [1, 18]: 0.53 µM | IC50 ([8]; read-out: Inhibition of CDK9/cyclin T, IC50): 0.14 µM | IC50 [2, 19]: 0.18 µM | IC50 [5, 22]: 13 µM | IC50 [6, 24]: 0.15 µM
Compound: CC(C)n1cnc2c(NCc3ccc(-c4ccccn4)cc3)cc(NC(CO)[C@@H](C)O)nc21 (stereo in doubt) [Ij, (R,R)-2-[[3-isopropyl-7-[[4-(2-pyridyl)phenyl]methylamino]imidazo[4,5-b]pyridin-5-yl]amino]butane-1,3-diol]
IC50 [4, 23]: 0.15 µM

IC50 ([1]; Table 5, read-out: CK1): 1.9 µM | IC50 ([8]; Table 5, read-out: CDK9/cyclin T): 0.12 µM | IC50 ([9]; Table 5, read-out: CDK2/cyclin A): 0.15 µM | IC50 ([7]; Table 5, read-out: DYRK1A): 2.8 µM | IC50 [10]: 0.1 µM | IC50 ([2]; Table 5, read-out: CDK5/p25): 0.2 µM | IC50 [14]: 9 µM | IC50 ([5]; Table 5, read-out: GSK-3α/β): 24.5 µM | IC50 ([6]; Table 5, read-out: CDK1/cyclin B): 0.27 µM
Compound: CC[C@@H](CO)Nc1cc(NCc2ccc(-c3ccccn3)cc2)c2ncn(C(C)C)c2n1 [(S)-perharidine D, (S)-7-[4-(2-Pyridyl)-benzylaminol]-5-[(2-butyl-1ol)amino]-3-iso-propylimidazo[4,5-b]pyridine]
IC50 [11]: 0.3 µM | IC50 [12]: 0.099 µM | IC50 ([4]; Table 6, MTS assay, read-out: SH-SY5Y cell survival): 0.66 µM | IC50 ([13]; LLC B-cells, read-out: Cell death induction): 0.13 µM | IC50 ([13]; Table 6, read-out: Chronic Lymphocytic Leukemia cell survival): 0.13 µM

IC50 [1, 18]: 0.28 µM | IC50 [2, 19]: 0.34 µM and 0.35 µM
Compound: CC(C)n1cnc2c(NCc3ccc(-c4ccccn4)cc3)cc(NC(CO)CO)nc21 [Perharidine E, 3-Iso-Propyl-5-(1,3-dihydroxypropylamino)-7-[4-(2-pyridyl)-benzylamino]-imidazo[4,5-b]pyridine]
